In article PMC6143625, “A high throughput screen for next-generation leads targeting malaria parasite transmission” (Nature Communications, 2018):

What was measured:
[1] = system: P. falciparum 3D7 asexual blood stages; experiment: Whole-cell time extended asexual growth assay (pLDH); type: cell-based; details: Plasmodium falciparum, 72 h; for IC50: dose response retest, read-out: IC50 (µM) Asex stages; for inhibition at 2 µM: primary screen, read-out: %Inh Asex stages @2uM
Procedure: Asexual activity was assayed via Plasmodium lactate dehydrogenase activity (pLDH), a surrogate of asexual parasite growth. […] 2 µM artesunate and DMSO were used as the positive and negative controls, respectively. […] After plate mixing, NBT reduction was measured by absorbance at 650 nm using Envision (Perkin Elmer).

HepG2 human cells = system: HepG2 human cells; set-up: method as in http://dx.doi.org/10.6019/CHEMBL3507680; details: ref http://dx.doi.org/10.6019/CHEMBL3507680; cited from earlier work

SMILES	IC50 [1]	inhibition at 2 µM [1]	%Inh HepG2 @10uM (HepG2 human cells)
Cc1cccc(C)c1Nc1noc2c1CN(C(=O)c1ccn(C)n1)CC2 [DDD01057030]	2 µM	47.3%	46.43%
CCCNc1cc(-c2c[nH]nc2C2CCN(C(=O)C3CCC3)C2)ccn1 (stereo not drawn) [DDD01057089]	1.85 µM	43.4%	96.64%
Cl.NC1CCc2nc(-c3cccnc3)nc(Nc3ccc(F)cc3)c2C1 (stereo not drawn) [DDD01057099]	1.37 µM	68.5%	3.41%
CC(C)Nc1cc(-c2c[nH]nc2C2CCN(C(=O)C3CC3)C2)ccn1 (stereo not drawn) [DDD01057305]	5.06 µM	30.6%	96.71%
CC(C)CNc1cc(-c2c[nH]nc2C2CCN(C(=O)C3CC3)C2)ccn1 (stereo not drawn) [DDD01057306]	3.78 µM	35.1%	95.13%
CC(C)Nc1cc(-c2c[nH]nc2C2CCN(C(=O)C3CCC3)C2)ccn1 (stereo not drawn) [DDD01057307]	2.39 µM	36.2%	95.83%
CCOc1ccc(CN2CCCC(c3cc4ncccc4[nH]3)C2)cc1 (stereo not drawn) [DDD01057418]	1.67 µM	91.8%	6.95%
COCC(=O)N1CCCC(c2nc(N(C)C)ncc2-c2ccccc2)C1 (stereo not drawn) [DDD01057962]	5.84 µM	42.5%	4.41%
Cc1nn(C)cc1C1=NS(=O)(=O)N(C)C(C(=O)Nc2ccc(Cl)cc2)=C1 [DDD01058696]	0.456 µM	97.9%	1.32%
Cc1nn(C)cc1C1=NS(=O)(=O)N(C)C(C(=O)Nc2ccc(Br)cc2)=C1 [DDD01058697]	0.366 µM	98%	0.0552%
Cl.Fc1ccc(F)c(CN2CCC(c3cc4ncccc4cn3)CC2)c1 [DDD01058752]	1.79 µM	62.6%	4.59%
Cl.Fc1cccc(CN2CCC(c3cc4ncccc4cn3)CC2)c1F [DDD01058754]	1.64 µM	33.2%	4.71%
COc1ccc(C)cc1CN1CCC(c2cc3ncccc3cn2)CC1.Cl [DDD01058767]	0.853 µM	97.7%	105.03%
Cc1cc(CN2CCc3nc(-c4ccncc4)nc(O)c3CC2)c(C)s1 [DDD01058881]	2.2 µM	77.5%	-7.80%
CN(C)CCN(C)C(=O)Cn1cccc2cc(-c3ccc(F)cc3)nc1-2 [DDD01059044]	1.29 µM	97%	4.32%
CCN1c2ccc(-c3cncn3CC(=O)NC(C)(C)C)cc2CC1C.Cl (stereo not drawn) [DDD01059258]	2.95 µM	82.1%	-7.81%
c1ccc(-c2cc(CNCCN3CCCC3)c3nnnn3c2)cc1 [DDD01059599]	1.55 µM	79.4%	-3.47%
COc1ccc(F)c(CN(CCCn2ccnc2)Cc2ccc(C)s2)c1.O=C(O)CC(O)(CC(=O)O)C(=O)O [DDD01059675]	8.49 µM	33.8%	45.48%
CN(CCCOc1ccccc1)C(=O)c1csc(-c2nnc[nH]2)n1 [DDD01061692]	2.03 µM	34.8%	-5.84%
Clc1ccc(C2(CNC3=NCCN3)CC2)cc1.I [DDD01067441]	1.95 µM	40.6%	10.02%
COc1cc(C)sc1C(=O)NCCNc1ccccc1 [DDD01067535]	2.4 µM	41.9%	11.25%
COc1cc2nc(NCc3ccc(C)nc3)nc(N)c2cc1OC [DDD01069328]	2.24 µM	58%	-5.25%
Clc1cccc(CNC2CCN(CCc3ccncc3)CC2)c1 [DDD01069722]	2.28 µM	57.5%	0.53%

SMILES	IC50 [1]	inhibition at 2 µM [1]	%Inh HepG2 @10uM (HepG2 human cells)
COc1ccccc1CN(C)C(=O)CN1CC(n2nc(C)cc2C)C1 [DDD01071519]	2.5 µM	44.4%	-2.12%
COc1ccc(C(=O)NCCCOC(C)c2ccccc2)c(OC)c1 (stereo not drawn) [DDD01071935]	2.68 µM	41.6%	-11.10%
CCC(=O)NCC(c1ccc(SC)cc1)N1CCc2sccc2C1 (stereo not drawn) [DDD01071943]	2.03 µM	64.5%	-8.32%
CN(C)c1ccnc(N2CCC(NCCOc3ccccc3)CC2)n1 [DDD01072965]	7.83 µM	30.8%	19.60%
CCOCC1CCN(C(=O)Nc2ccc3c(c2)CCCN3C)C1 (stereo not drawn) [DDD01073381]	1.9 µM	31.9%	-10.40%
COc1cccc(CNc2cc(C)nc(-c3ccncc3)n2)c1OC [DDD01073393]	4.85 µM	40.5%	-6.44%
O=C(c1ccccc1)C1CCN(Cc2cc3c(cc2O)CCC3)CC1 [DDD01073482]	1.75 µM	48.9%	33.89%
CC1CCN(c2ccnc3ccc(Br)cc23)CC1 [DDD01075547]	9.1 µM	35.9%	2.00%
Cc1cnc(NCc2ccc(S(=O)(=O)N(C)C(C)C)cc2)nc1C [DDD01077176]	3.18 µM	42.2%	-11.10%
N#Cc1c(Cl)nsc1NCCCN1C(=O)COc2ccccc21 [DDD01077687]	3.47 µM	39.1%	8.75%
COc1ccc(Oc2cc(CN)ccn2)cc1 [DDD01078308]	6.7 µM	30.1%	2.32%
NC(=O)CN1CCC(Nc2ccnc3ccc(Cl)cc23)CC1 [DDD01078433]	1.24 µM	82%	-1.05%
Cc1cc(=O)n2nc(Oc3ccc(Cl)c(C)c3)sc2n1 [DDD01078480]	3.34 µM	42%	-6.83%
COc1c(C)cnc(CN(C)C2CCCCC2)c1C [DDD01078822]	5.74 µM	35.1%	8.25%
CCOCc1ccc(CNC2=NCCCN2)cc1.I [DDD01079448]	1.58 µM	40.1%	-2.49%
Cc1ccc(CNC2CCN(CCc3ccncc3)CC2)cc1C [DDD01080013]	1.81 µM	77%	1.32%
COc1cccc(CN(C)C(=O)CN2CC(n3nc(C)cc3C)C2)c1 [DDD01080719]	2.29 µM	49.9%	-1.82%
CCS(=O)(=O)N1CCC2(CC1)CN(CC1CCOC1)c1ccccc12.O=C(O)C(F)(F)F (stereo not drawn) [DDD01082339]	7.55 µM	46%	25.95%
O=C(O)C(F)(F)F.c1ccc(CN2CCC3(CC2)CC(Nc2nccs2)CO3)nc1 (stereo not drawn) [DDD01083119]	7.18 µM	37.5%	-8.19%
CC(C)N(C)Cc1cnc2n1CCN(C(=O)NC1CCCC1)C2.O=C(O)C(F)(F)F [DDD01085014]	4.32 µM	42.5%	-9.47%
O=C(NCCCN1CCOCC1)c1ccn(-c2ccc3ccccn23)n1.O=C(O)C(F)(F)F [DDD01085308]	2.53 µM	50.4%	23.54%
c1cc(-c2n[nH]cc2-c2ccnc(N3CCCC3)n2)ccn1 [DDD01235828]	0.201 µM	46.4%	-2.36%
COc1ccc2[nH]cc(-c3ccnc(NC4CCCC4)n3)c2c1 [DDD01235847]	3.02 µM	33.7%	-0.78%
